Test results taken from US8324177B2, “Triterpene compositions and methods for use thereof” (Research Development Foundation, priority 1998, dated 2012).

Test system: poly (ADP-ribose) polymerase (PARP) cleavage in Jurkat cells
Assay: Immunoblot analysis of PARP degradation
Type: cell-based, human
Conditions: 100 μM, 1 h pretreatment
Description: Apoptosis induced by F035 & D1 was examined by proteolytic cleavage of poly (ADP-ribose) polymerase (PARP). Jurkat cells (2×10^6/ml) were treated with F035 (2 μg/ml) and D1 (2 μg/ml) for different lengths of time. Cell lysates were prepared in buffer containing 20 mM HEPES, 250 mM NaCl, 2 mM EDTA, 0.1% NP-40, 2 μg/ml leupeptin, 2 μg/ml aprotinin, 0.5 μg/ml benzamidine, 1 mM DTT and 1 mM PMSF. Cellular proteins (60 μg/ml) were separated on a 7.5% SDS polyacrylamide gel and electrotransferred onto a nitrocellulose membrane. The membrane was probed first with monclonal anti-PARP antibody (PharMingen) and then with anti-mouse antibody conjugated to horse radish peroxidase (HRPO). Protein bands were detected by chemiluminescense (ECL, Amersham). The extent of cleavage of the 116-kDa PARP into 85-kDa and 41-kDa peptide products was used as a measure of apoptosis (Tewari et al., 1995).

With z-vad fmk the “Effect on F035 induced cleavage of PARP (in words)” value was “completely reversed”.
